{"source": "patent US8030493B2", "about": "“Monovalent and divalent salts of N-(5-hydroxynicotinoil) -L-glutamic acid exhibiting psychotropic (antidepressant and anxiolytic), neuroprotective, geroprotective and cerebroprotective action” (Obschestvo S Ogranichennoy Otvetstvennostyu “Natsionalnaya …, priority 2006, dated 2011)", "assay_type_in_all_cases": "in vivo", "key": {"[1]": {"system": "mice exposed to hypobaric hypoxia", "experiment": "Acute hypobaric hypoxia in flow-exhaust chamber", "protocol": "White nondescript male mice with body weight 22-28 g were used in the experiments. Each dose level was studied in 10 animals. Control animals received equivalent volume of distilled water. Nooglutyl was used as reference agent. Study compounds were administered intraperitoneally 40 minutes before the experiment.\nAcute hypobaric hypoxia was simulated in flow-exhaust chamber. Pressure was measured with altimeter, and elevation speed with variometer. The animals were “elevated” at the speed 20 m/s to the stage at 11000 m. The exposure lasted 10 minutes. Then the animals were mover down to the baseline level for 5 minutes. Hypoxia with hypercapnia in hermovolume was created by placement of the animal into 200 ml hermetically sealed glass vessels. Life period of the animals under hypoxic conditions was recorded. Each group comprised 10 animals."}, "rats with amnesia": {"system": "rats with amnesia", "experiment": "Antiamnestic activity: passive avoidance response (PAR) with amnesia by maximum electric shock", "settings": "for Time of presence of animals while PAR reproduction (seconds) in the dark chamber / Time of presence of animals while PAR reproduction (seconds) on the illuminated platform: rats with electric shock amnesia, 24 hours after learning; for Dose level with statistically significant antiamnestic effect of the same intensity: PAR, electric shock amnesia, intraperitoneally", "protocol": "White nondescript male rats with body weight 250-280 g were used in the experiments. Each dose level was studied in 10 animals. Control animals received equivalent volume of distilled water. Nooglutyl was used as reference agent. Study compounds were administered intraperitoneally 40 minutes before the experiment. Experiment was carried out on the standard automated unit for passive avoidance response (Passive Avoidance) supplied by Lafayette Instrument Co., (USA) (Ader et al. Retention of a passive avoidance response as a function of the intensity and duration of electric shock. Psycho Sci. 1972, v. 26, p. 125-128; Voronina T. A. et al. “Textbook for Experimental (Preclinical Study) of novel pharmacological compounds”. Moscow, Medicina. 2005, p. 253-263 and 308-320). The unit was designed as small platform situated 1 m above the floor, which was illuminated with special lamp, and dark chamber with electrode floor connected with the platform. The rat was placed on illuminated platform in front of the entry to the dark chamber with its tail directed to the entry; the animal preferred dark chamber and quickly ran into it. In the dark chamber the animal received single pain stimulus with electric current (0.45 mA) and memorized that it was dangerous to enter dark chamber. Duration of the stimulus was determined from the running out of the animal from the dark chamber. To achieve amnesia maximum electric shock was used (50 Hz, 0.2 sec), which was made through corneal electrodes immediately after learning. Electric shock caused obliteration of the memory trace. Test for reproduction of passive avoidance response (PAR) (for retention of memory trace) was performed 24 hours after learning session and electric shock. The animal was placed on illuminated platform once again, and time of the presence on illuminated platform and dangerous dark chamber (no current was conducted to the floor during reproduction of PAR).\nControl trained animals with reproduction of PAR without electric shock preferred to stay on illuminated platform. Obliteration of training with electric shock causes amnesia in the animals; as a result, the animals with short latent period enter dark chamber and stay there considerably longer than animals without amnesia (Table 2)."}, "[2]": {"system": "rats with massive cortical ischemia", "experiment": "Model of massive cortical ischemia (occlusion of middle cerebral artery): ischemic damage of cerebral cortex", "settings": "for Intensity of ischemic damage of cerebral cortex (slice score, points), slice 1 / Intensity of ischemic damage of cerebral cortex (slice score, points), slice 2 / Intensity of ischemic damage of cerebral cortex (slice score, points), slice 3 / Intensity of ischemic damage of cerebral cortex (slice score, points), slice 4 / Intensity of ischemic damage of cerebral cortex (slice score, points), slice 5: 72 hours after OMCA", "protocol": "White nondescript male rats with body weight 350-450 g anesthetized with chloral hydrate (400 mg/kg, intraperitoneally) were used in the experiments. After ligation of left carotid occlusion of middle cerebral artery (OMCA) was made under the microscope (magnification 14.0×3.3) proximal to bifurcation to frontal and parietal branches (S. T. Chen et al., Stroke, 1986, v. 17, No 4, p. 738-743).\nAfter the surgery the animals were randomized into 3 groups. Experimental animals received Compound I or nooglutyl intraperitoneously 30 minutes, 2, 24, and 48 hours after the surgery. Control animals at the same time points received saline (0.9% sodium chloride solution). 72 hours after OMCA the animals were decapitated. Material frozen at −20° C. was used for preparation of 5 frontal slices 2.5 mm thick, which were painted with 2,3,5-triphenyltetrazolium solution (TPTZ). Auc1 morphometric program was used to perform planimetria, determination of affected zone extent and percentage of affected zone extent in relation to volume of ipsilateral hemisphere. The surgery results in creation of vast ischemic damage of the brain cortex, which is localized within frontal-parietal and dorsal-lateral zones. To compare intensity of the changes in different slices arbitrary scale was used, with 75%, 60%, 45%, 20%, 5%, and 0% affection of hemisphere assessed as 2.5 points, 2 points, 1.5 points, 1 point, 0.5 points, and 0 points, respectively."}, "[3]": {"system": "rats with induced ischemia", "experiment": "Passive avoidance response in animals with induced ischemia", "settings": "24 hours after learning, 180 seconds test", "from_the_text": "In separate series of the experiments the animals learned in the test of passive avoidance response (PAR), which was formed in apparatus supplied by Lafayette Instrument Co. (USA) comprising brightly illuminated hanging platform connected to dark chamber with electrified floor. In the course of learning the rat entered dark chamber due to congenital hole reflex, and received pain electric stimulus.\nThese effects of nooglutyl and Compound Ia were significant compared with control at p<0.05."}, "aged rats (24 months)": {"system": "aged rats (24 months)", "experiment": "Passive avoidance response in aged rats (24 months)", "settings": "20 mg/kg 60 days, PAR reproduction 24 hours after learning; for Number of the rats, which did not entry dark chamber (%): 20 mg/kg", "protocol": "White nondescript male rats (Wistar line): to adult animals at age 3 months with body weight 250-300 g and aged 24 month old animals with body weight 350-450 g were used in the study. Nooglutyl at dose level 20 mg/kg and Compound I were administered to aged rats intraperitoneally for 2 months followed by assessment of the effect on learning capacity impaired by age and neurological deficit. Analysis of variance with Student's test, variant portion method and U-test were employed for data processing.\nImpact of Compound I on memory disorders in aged animals. To develop passive avoidance response (PAR) in rats the unit supplied by Lafayette Instrument Co., (USA) (Ader et al. Retention of a passive avoidance response as a function of the intensity and duration of electric shock. Psycho Sci. 1972, v. 26, p. 125-128; Voronina T. A. et al. “Textbook for Experimental (Preclinical Study) of novel pharmacological compounds”. Moscow, Medicina. 2005, p. 253-263 and 308-320) was used. […] Animals preferring illuminated platform were not used in this experiment. In the dark chamber the animal received single pain stimulus with electric current (0.45 mA), duration of the stimulus was determined from the running out of the animal from the dark chamber."}, "[4]": {"settings": "30 mg/kg intraperitoneally 40 minutes before the experiment"}, "[5]": {"settings": "60 mg/kg intraperitoneally 40 minutes before the experiment"}, "[6]": {"settings": "40 mg/kg intraperitoneally 30 minutes, 2, 24, 48 hours after surgery"}, "[7]": {"settings": "50 mg/kg intraperitoneally 30 minutes, 2, 24, 48 hours after surgery"}}, "data": [{"smiles": "O=C([O-])CC[C@H](NC(=O)c1cncc(O)c1)C(=O)[O-].[Ca+2]", "note": "[Compound I, Calcium N-(5-hydroxynicotinoyl)-L-glutamate]", "values": [{"measurement": "Life interval of mice (minutes) exposed to hypobaric hypoxia", "setting": "[1]; [4]", "result": "6.51 ± 0.82", "unit": "min"}, {"measurement": "Life interval of mice (minutes) exposed to hypobaric hypoxia", "setting": "[1]; [5]", "result": "9.17 ± 0.91", "unit": "min"}, {"measurement": "Time of presence of animals while PAR reproduction (seconds) in the dark chamber", "setting": "rats with amnesia; 25 mg/kg intraperitoneally", "result": "64.2 ± 6.4", "unit": "s"}, {"measurement": "Time of presence of animals while PAR reproduction (seconds) on the illuminated platform", "setting": "rats with amnesia; 25 mg/kg intraperitoneally", "result": "55.8 ± 9.3", "unit": "s"}, {"measurement": "Time of presence of animals while PAR reproduction (seconds) in the dark chamber", "setting": "rats with amnesia; 50 mg/kg intraperitoneally", "result": "40.6 ± 8.3", "unit": "s"}, {"measurement": "Time of presence of animals while PAR reproduction (seconds) on the illuminated platform", "setting": "rats with amnesia; 50 mg/kg intraperitoneally", "result": "79.4 ± 12.8", "unit": "s"}, {"measurement": "Dose level with statistically significant antiamnestic effect of the same intensity", "setting": "rats with amnesia", "result": 25, "unit": "mg/kg"}, {"measurement": "Total affected area (percentage of volume of ipsilateral hemisphere)", "setting": "[2]; 40 mg/kg after ischemia-inducing exposure", "result": "10.54±1.84", "unit": "%"}, {"measurement": "Intensity of ischemic damage of cerebral cortex (slice score, points), slice 1", "setting": "[2]; [6]", "result": "0.08 ± 0.01", "unit": "points"}, {"measurement": "Intensity of ischemic damage of cerebral cortex (slice score, points), slice 2", "setting": "[2]; [6]", "result": "0.92 ± 0.12", "unit": "points"}, {"measurement": "Intensity of ischemic damage of cerebral cortex (slice score, points), slice 3", "setting": "[2]; [6]", "result": "0.7 ± 0.19", "unit": "points"}, {"measurement": "Intensity of ischemic damage of cerebral cortex (slice score, points), slice 4", "setting": "[2]; [6]", "result": "0.58 ± 0.14", "unit": "points"}, {"measurement": "Intensity of ischemic damage of cerebral cortex (slice score, points), slice 5", "setting": "[2]; [6]", "result": "0.2 ± 0.15", "unit": "points"}, {"measurement": "Decrease of total affected extent versus control", "setting": "[2]; 40 mg/kg, p<0.05", "result": 47.3, "unit": "%"}, {"measurement": "Latent period of entry to dark dangerous chamber", "setting": "[3]", "result": "62.3 ± 7.2", "unit": "s"}, {"measurement": "Latent period of entry to dark chamber (c)", "setting": "aged rats (24 months)", "result": "96.9 ± 16.1", "unit": "c"}, {"measurement": "Number of the rats, which did not entry dark chamber (%)", "setting": "aged rats (24 months)", "result": 60, "unit": "%"}]}, {"smiles": "O=C(O)CC[C@H](NC(=O)c1cncc(O)c1)C(=O)O", "note": "[Nooglutyl, N-(5-hydroxynicotinoyl)-L-glutamic acid, reference compound]", "values": [{"measurement": "Life interval of mice (minutes) exposed to hypobaric hypoxia", "setting": "[1]; [4]", "result": "4.1 ± 0.77", "unit": "min"}, {"measurement": "Life interval of mice (minutes) exposed to hypobaric hypoxia", "setting": "[1]; [5]", "result": "7.68 ± 0.54", "unit": "min"}, {"measurement": "Time of presence of animals while PAR reproduction (seconds) in the dark chamber", "setting": "rats with amnesia; 25 mg/kg intraperitoneally", "result": "73.3 ± 13.4", "unit": "s"}, {"measurement": "Time of presence of animals while PAR reproduction (seconds) on the illuminated platform", "setting": "rats with amnesia; 25 mg/kg intraperitoneally", "result": "46.7 ± 13.4", "unit": "s"}, {"measurement": "Time of presence of animals while PAR reproduction (seconds) in the dark chamber", "setting": "rats with amnesia; 50 mg/kg intraperitoneally", "result": "65.7 ± 7.1", "unit": "s"}, {"measurement": "Time of presence of animals while PAR reproduction (seconds) on the illuminated platform", "setting": "rats with amnesia; 50 mg/kg intraperitoneally", "result": "54.3 ± 10.2", "unit": "s"}, {"measurement": "Dose level with statistically significant antiamnestic effect of the same intensity", "setting": "rats with amnesia", "result": 50, "unit": "mg/kg"}, {"measurement": "Total affected area (percentage of volume of ipsilateral hemisphere)", "setting": "[2]; 50 mg/kg after ischemia-inducing exposure", "result": "14.3±2.14", "unit": "%"}, {"measurement": "Intensity of ischemic damage of cerebral cortex (slice score, points), slice 1", "setting": "[2]; [7]", "result": "0.28 ± 0.06", "unit": "points"}, {"measurement": "Intensity of ischemic damage of cerebral cortex (slice score, points), slice 2", "setting": "[2]; [7]", "result": "1.12 ± 0.17", "unit": "points"}, {"measurement": "Intensity of ischemic damage of cerebral cortex (slice score, points), slice 3", "setting": "[2]; [7]", "result": "1.01 ± 0.11", "unit": "points"}, {"measurement": "Intensity of ischemic damage of cerebral cortex (slice score, points), slice 4", "setting": "[2]; [7]", "result": "0.59 ± 0.19", "unit": "points"}, {"measurement": "Intensity of ischemic damage of cerebral cortex (slice score, points), slice 5", "setting": "[2]; [7]", "result": "0.18 ± 0.14", "unit": "points"}, {"measurement": "Latent period of entry to dark dangerous chamber", "setting": "[3]", "result": "56.2 ± 8.3", "unit": "s"}, {"measurement": "Latent period of entry to dark chamber (c)", "setting": "aged rats (24 months)", "result": "97.1 ± 20.3", "unit": "c"}, {"measurement": "Number of the rats, which did not entry dark chamber (%)", "setting": "aged rats (24 months)", "result": 60, "unit": "%"}]}]}
